Laboratory results as given in US10398720B2, “Compound of the avermectin family or of the milbemycin family for the treatment and/or prevention of atopic dermatitis” (GALDERMA SA, priority 2013, dated 2019).

Test system: Der f-induced AD mouse model
Assay: Dermatophagoides farinae (Der f)-induced atopic dermatitis (AD)-like mouse model, topical route
Type: in vivo, Balb/c mice
Conditions: for cytokine concentration / production (IL-10, IL-13, IL-17, IL-4, IL-5, IFNg; FIG. 5): 0.1% ivermectin; for inflammatory response induced by Der f application: topical daily day 19 to day 36, solutions in acetone, ivermectin 0.003-0.1%; for ear edema (ear thickness, FIG. 1): topical daily day 19 to day 36
Description: 1.1. […] Der f has been purchased from Greer Laboratories and a Der f solution has been prepared at 12.5 mg/ml in 70% DMSO in MilliQ water. […] Balb/c mice strain has been used for the study. These animals have been obtained from controlled breeding and were specific pathogen free. The animals have been provided by Janvier SAS, France. AD-like lesions have been induced once a week by topical application of 20 μl of Der f solution on the right ear for 5 weeks at […], day 29 and day 36. Mice have been daily treated from day 19 to day 36 with the different solutions administrated by the topical route. Measurement of ear thickness have been monitored before and 24 hours after each allergen application. After day 19, ears have been daily measured before compound application. Blood samples have been collected into appropriate vials under isoflurane anaesthesia for further analysis (IgE). Mice have been then immediately euthanized. After mouse euthanasia, the right ear has been collected and has been washed in ethanol 70% and has been rinsed in PBS. Three skin biopsies have then been collected for cytokines profiles, eosinophil peroxidase (EPO) quantification and histological slides in order to quantify the mastocytes and in order to measure the epidermis thickness.

[1] = right ear skin biopsy, 0.05% triamcinolone acetonide, 0.1% tacrolimus
[2] = 0.05% triamcinolone acetonide, 0.1% tacrolimus
[3] = 0.05% triamcinolone acetonide, 0.1% tacrolimus, ivermectin 0.003, 0.01, 0.03 and 0.1%
[4] = histological slides, 0.05% triamcinolone acetonide, ivermectin 0.003, 0.01, 0.03 and 0.1%

Compound | cytokine concentration / production (IL-10, IL-13, IL-17, IL-4, IL-5, IFNg; FIG. 5) [1] | interleukin IL-17 production (FIG. 5) (right ear skin biopsy, 0.1% tacrolimus) | inflammatory response induced by Der f application [2] | ear edema (ear thickness, FIG. 1) [3] | IgE secretion (total seric IgE, FIG. 4) (blood sample, 0.05% triamcinolone acetonide, ivermectin 0.003, 0.01, 0.03 and 0.1%) | epidermal thickness (FIG. 2) [4] | mastocyte count (within the dermis, FIG. 6) [4] | dose response of the anti-inflammatory activity (ivermectin 0.003 to 0.1% topical) | anti-inflammatory response, higher concentrations (ivermectin 0.01, 0.03 and 0.1% topical, compared with 0.003%) | inflammatory response, compared with positive controls (ivermectin at 0.003% topical vs triamcinolone acetonide at 0.05% and tacrolimus at 0.1%) | EPO (eosinophil peroxidase, FIG. 3) (right ear skin biopsy, 0.05% triamcinolone acetonide, ivermectin 0.003, 0.01 and 0.03%)
C=CC[C@@H]1/C=C(\C)C[C@H](C)C[C@H](OC)[C@H]2O[C@@](O)(C(=O)C(=O)N3CCCC[C@H]3C(=O)O[C@H](/C(C)=C/[C@@H]3CC[C@@H](O)[C@H](OC)C3)[C@H](C)[C@@H](O)CC1=O)[C@H](C)C[C@@H]2OC [tacrolimus] | totally reduces | totally reduces | completely inhibit | totally reduces | – | – | – | – | – | – | –
Ivermectin | significantly decreases | – | able to reduce | significantly decreases | significantly decreases | lessens | lessens | inverse dose response | less potent than the weakest concentration (0.003%) | to the same extent as triamcinolone acetonide at 0.05% and as tacrolimus at 0.1% | significantly decreases
